Reference: publication PMC12750381 (ACS Omega, 2025)
Values joined by “and” are separate entries in the source; they are usually repeats but may differ in a detail not shown here. Identical values can stand only once.

Target: HIV-1 wild-type protease (Human immunodeficiency virus type 1 group M subtype B, UniProt P04585)
Experiment: Fluorometric HIV-1 protease assay (SensoLyte 520 HIV Protease Assay Kit)
Assay type: biochemical
Conditions: for enzyme inhibition (relative activity): at 1 μM, 100 nM and 10 nM
Protocol: The inhibitory effects of the described compounds against HIV-1 wild-type protease were assessed utilizing the fluorometric HIV-1 protease assay kit (SensoLyte 520 HIV Protease Assay Kit AS-71147, AnaSpec Inc., USA), following the manufacturer’s recommended protocol. […] Additionally, 0.01% (v/v) DMSO was employed as the negative control. […] The tested compounds 9a–g were dissolved in 100% DMSO and further diluted with the assay buffer provided in the kit to varying concentrations. The fluorescence was measured in kinetic mode at 490 nm (excitation) and 520 nm (emission) for 90 min at 37 °C using the Varioskan LUX multimode microplate reader (Thermo Fisher Scientific Inc. USA). The raw data obtained were subsequently normalized relative to the controls, with 0.01% DMSO set as 0% inhibitory activity. The IC50 values were calculated by fitting the data to a four-parameter log(inhibitor) vs response equation using GraphPad Prism version 9.5.0 (GraphPad Software, San Diego, California, USA).

| SMILES | enzyme inhibition (relative activity) (result in words) | IC50 (IC50, wild-type HIV-1 protease, four-parameter log(inhibitor) vs response fit) | inhibitory effect (at 1 μM and 100 nM, result in words) |
| --- | --- | --- | --- |
| NC(=O)[C@H](Cc1ccccc1)NC(=O)C(Cc1ccccc1)CP(=O)(O)CC(Cc1ccccc1)C(=O)N[C@@H](Cc1ccccc1)C(N)=O (stereo partly drawn) [Compound 9e, Bis(3-(((S)-1-amino-1-oxo-3-phenylpropan-2-yl)amino)-2-benzyl-3-oxopropyl)phosphinic Acid] | only weak inhibition | – | – |
| C[C@H](NC(=O)C(Cc1ccccc1)CP(=O)(O)CC(Cc1ccccc1)C(=O)N[C@@H](C)C(N)=O)C(N)=O (stereo partly drawn) [Compound 9b, Bis(3-(((S)-1-amino-1-oxopropan-2-yl)amino)-2-benzyl-3-oxopropyl)phosphinic Acid] | only weak inhibition | – | – |
| NC(=O)[C@@H]1CCCN1C(=O)C(Cc1ccccc1)CP(=O)(O)CC(Cc1ccccc1)C(=O)N1CCC[C@H]1C(N)=O (stereo partly drawn) [Compound 9f, Bis(2-benzyl-3-((S)-2-carbamoylpyrrolidin-1-yl)-3-oxopropyl)phosphinic Acid] | did not exhibit any significant inhibitory effect | – | – |
| CC(C)[C@H](NC(=O)C(Cc1ccccc1)CP(=O)(O)CC(Cc1ccccc1)C(=O)N[C@H](C(N)=O)C(C)C)C(N)=O (stereo partly drawn) [Compound 9c, Bis(3-(((S)-1-amino-3-methyl-1-oxobutan-2-yl)amino)-2-benzyl-3-oxopropyl)phosphinic Acid] | – | 33 nM and 33.1 nM | pronounced inhibitory effect comparable to that of Darunavir |
| CC(C)C[C@H](NC(=O)C(Cc1ccccc1)CP(=O)(O)CC(Cc1ccccc1)C(=O)N[C@@H](CC(C)C)C(N)=O)C(N)=O (stereo partly drawn) [Compound 9d, Bis(3-(((S)-1-amino-4-methyl-1-oxopentan-2-yl)amino)-2-benzyl-3-oxopropyl)phosphinic Acid] | moderate level of enzyme inhibition | – | – |
| NC(=O)CNC(=O)C(Cc1ccccc1)CP(=O)(O)CC(Cc1ccccc1)C(=O)NCC(N)=O (stereo not shown) [Compound 9a, Bis(3-((2-amino-2-oxoethyl)amino)-2-benzyl-3-oxopropyl)phosphinic Acid] | did not exhibit any significant inhibitory effect | – | – |
